Test results published in patent US10106504B2, “Pyridin-3-yl acetic acid derivatives as inhibitors of human immunodeficiency virus replication” (priority 2015, dated 2018).
pEC50: −log10 of the molar value. Where two headings read alike, the source gives them in different places.

System: NL-RLuc virus
Test: Inhibition of HIV replication (NL-RLuc virus, luciferase readout in MT-2 cells)
Assay type: cell-based
Details: Human immunodeficiency virus 1, MT2, 120 h; for pEC50: read-out: Activity; for EC50: read-out: EC50 μM
From the text: Inhibition of HIV Replication:
A recombinant NL-RLuc proviral clone was constructed in which a section of the nef gene from NL4-3 was replaced with the Renilla Luciferase gene. This virus is fully infectious and can undergo multiple cycles of replication in cell culture. In addition, the luciferous reporter provides a simple and easy method for quantitating the extent of virus growth and consequently, the antiviral activity of test compounds. The plasmid pNLRLuc contains the proviral NL-Rluc DNA cloned into pUC18 at the PvuII site. The NL-RLuc virus was prepared by transfection of 293T cells with the plasmid pNLRLuc. Transfections were performed using the LipofectAMINE PLUS kit from Invitrogen (Carlsbad, Calif.) according to the manufacturer and the virus generated was titered in MT-2 cells. For susceptibility analyses, the titrated virus was used to infect MT-2 cells in the presence of compound, and after 5 days of incubation, cells were processed and quantitated for virus growth by the amount of expressed luciferase. Assay media was RPMI 1640 supplemented with 10% heat inactivated fetal bovine serum (FBS), 100 units/ml penicillin G/100 units/ml streptomycin, 10 mM HEPES buffer pH 7.55 and 2 mM L-glutamine. The results from at least 2 experiments were used to calculate the EC50 values. Luciferase was quantitated using the Dual Luciferase kit from Promega (Madison, Wis.). Susceptibility of viruses to compounds was determined by incubation in the presence of serial dilutions of the compound. The 50% effective concentration (EC50) was calculated by using the exponential form of the median effect equation where (Fa)=1/[1+(ED50/drug conc.)^m] (Johnson V A, Byington R T. Infectivity Assay. In Techniques in HIV Research. ed. Aldovini A, Walker BD. 71-76. New York: Stockton Press. 1990). Activity equal to A refers to a compound having an EC50<100 nM, while B and C denote compounds having an EC50 between 100 nM and 1 uM (B) or >1 uM (C).

| Structure (SMILES) | pEC50 | EC50 [µM] |
| --- | --- | --- |
| Cc1cccc(F)c1CN1CCc2cc(-c3c(C)nc(C)c([C@H](OC(C)(C)C)C(=O)O)c3-c3ccc4c(c3)CCCO4)ccc2C1 [Example 25, (S)-2-(tert-Butoxy)-2-(4-(chroman-6-yl)-5-(2-(2-fluoro-6-methylbenzyl)-1,2,3,4-tetrahydroisoquinolin-6-yl)-2,6-dimethylpyridin-3-yl)acetic Acid] | > 7.00 |  |
| Cc1cccc(CN2CCc3cc(-c4c(C)nc(C)c([C@H](OC(C)(C)C)C(=O)O)c4-c4ccc5c(c4)CCCO5)ccc3C2)c1F [Example 26, (S)-2-(tert-Butoxy)-2-(4-(chroman-6-yl)-5-(2-(2-fluoro-3-methylbenzyl)-1,2,3,4-tetrahydroisoquinolin-6-yl)-2,6-dimethylpyridin-3-yl)acetic Acid] | > 7.00 |  |
| Cc1nc(C)c([C@H](OC(C)(C)C)C(=O)O)c(-c2ccc3c(c2)CCCO3)c1-c1ccc2c(c1)CCN(Cc1ccccc1Cl)C2 [Example 27, (S)-2-(tert-Butoxy)-2-(5-(2-(2-chlorobenzyl)-1,2,3,4-tetrahydroisoquinolin-6-yl)-4-(chroman-6-yl)-2,6-dimethylpyridin-3-yl)acetic Acid] | > 7.00 | 0.005 |
| Cc1ccc(CN2CCc3cc(-c4c(C)nc(C)c([C@H](OC(C)(C)C)C(=O)O)c4-c4ccc5c(c4)CCCO5)ccc3C2)c(C)c1 [Example 28, (S)-2-(tert-Butoxy)-2-(4-(chroman-6-yl)-5-(2-(2,4-dimethylbenzyl)-1,2,3,4-tetrahydroisoquinolin-6-yl)-2,6-dimethylpyridin-3-yl)acetic Acid] | > 7.00 |  |
| Cc1cccc(Cl)c1CN1CCc2cc(-c3c(C)nc(C)c([C@H](OC(C)(C)C)C(=O)O)c3-c3ccc4c(c3)CCCO4)ccc2C1 [Example 29, (S)-2-(tert-Butoxy)-2-(5-(2-(2-chloro-6-methylbenzyl)-1,2,3,4-tetrahydroisoquinolin-6-yl)-4-(chroman-6-yl)-2,6-dimethylpyridin-3-yl)acetic Acid] | > 7.00 |  |
| Cc1nc(C)c([C@H](OC(C)(C)C)C(=O)O)c(-c2ccc3c(c2)CCCO3)c1-c1ccc2c(c1)CCN(CCc1ccccc1F)C2 [Example 30, (S)-2-(tert-Butoxy)-2-(4-(chroman-6-yl)-5-(2-(2-fluorophenethyl)-1,2,3,4-tetrahydroisoquinolin-6-yl)-2,6-dimethylpyridin-3-yl)acetic Acid] | > 7.00 |  |
| Cc1nc(C)c([C@H](OC(C)(C)C)C(=O)O)c(-c2ccc3c(c2)CCCO3)c1-c1ccc2c(c1)CCN(CCCc1ccc(F)cc1)C2 [Example 31, (S)-2-(tert-Butoxy)-2-(4-(chroman-6-yl)-5-(2-(3-(4-fluorophenyl)propyl)-1,2,3,4-tetrahydroisoquinolin-6-yl)-2,6-dimethylpyridin-3-yl)acetic Acid] | > 7.00 |  |
| Cc1nc(CN(C)CC2CCOCC2)c(-c2ccc3c(c2)CCN(c2ncnc4c2cnn4C)C3)c(-c2ccc3c(c2)CCCO3)c1[C@H](OC(C)(C)C)C(=O)O [Example 32, (S)-2-(tert-Butoxy)-2-(4-(chroman-6-yl)-2-methyl-6-((methyl((tetrahydro-2H-pyran-4-yl)methyl)amino)methyl)-5-(2-(1-methyl-1H-pyrazolo[3,4-d]pyrimidin-4-yl)-1,2,3,4-tetrahydroisoquinolin-6-yl)pyridin-3-yl)acetic Acid] | 6.00 to 7.00 |  |
| Cc1cc(N2CCc3cc(-c4c(CN(C)CC5CCOCC5)nc(C)c([C@H](OC(C)(C)C)C(=O)O)c4-c4ccc5c(c4)CCCO5)ccc3C2)ncn1 [Example 33, (S)-2-(tert-Butoxy)-2-(4-(chroman-6-yl)-2-methyl-6-((methyl((tetrahydro-2H-pyran-4-yl)methyl)amino)methyl)-5-(2-(6-methylpyrimidin-4-yl)-1,2,3,4-tetrahydroisoquinolin-6-yl)pyridin-3-yl)acetic Acid] | 6.00 to 7.00 | 0.282 |
| Cc1cccc(F)c1CN1CCc2cc(-c3c(CN(C)CC4CCOCC4)nc(C)c([C@H](OC(C)(C)C)C(=O)O)c3-c3ccc4c(c3)CCCO4)ccc2C1 [Example 34, (S)-2-(tert-Butoxy)-2-(4-(chroman-6-yl)-5-(2-(2-fluoro-6-methylbenzyl)-1,2,3,4-tetrahydroisoquinolin-6-yl)-2-methyl-6-((methyl((tetrahydro-2H-pyran-4-yl)methyl)amino)methyl)pyridin-3-yl)acetic Acid] | > 7.00 |  |
| Cc1cccc(Cl)c1CN1CCc2cc(-c3c(CN(C)CC4CCOCC4)nc(C)c([C@H](OC(C)(C)C)C(=O)O)c3-c3ccc4c(c3)CCCO4)ccc2C1 [Example 35, (S)-2-(tert-Butoxy)-2-(5-(2-(2-chloro-6-methylbenzyl)-1,2,3,4-tetrahydroisoquinolin-6-yl)-4-(chroman-6-yl)-2-methyl-6-((methyl((tetrahydro-2H-pyran-4-yl)methyl)amino)methyl)pyridin-3-yl)acetic Acid] | > 7.00 |  |
| Cc1nc(C)c([C@H](OC(C)(C)C)C(=O)O)c(-c2ccc3c(c2)C(F)(F)CCO3)c1-c1ccc(OCCc2ccc(F)cc2)cc1 [Example 36, (S)-2-(tert-Butoxy)-2-(4-(4,4-difluorochroman-6-yl)-5-(4-(4-fluorophenethoxy)phenyl)-2,6-dimethylpyridin-3-yl)acetic Acid] | > 7.00 |  |
| Cc1nc(C)c([C@H](OC(C)(C)C)C(=O)O)c(-c2ccc3c(c2)C(F)(F)CCO3)c1-c1ccc2c(c1)CCN(Cc1ccccc1F)C2 [Example 37, (S)-2-(tert-Butoxy)-2-(4-(4,4-difluorochroman-6-yl)-5-(2-(2-fluorobenzyl)-1,2,3,4-tetrahydroisoquinolin-6-yl)-2,6-dimethylpyridin-3-yl)acetic Acid] | > 7.00 |  |
| Cc1nc(C)c([C@H](OC(C)(C)C)C(=O)O)c(-c2cc(F)c3c(c2C)CCCO3)c1-c1ccc2c(c1)CCN(Cc1ccccc1F)C2 [Example 38, (2S)-2-(tert-Butoxy)-2-(4-(8-fluoro-5-methylchroman-6-yl)-5-(2-(2-fluorobenzyl)-1,2,3,4-tetrahydroisoquinolin-6-yl)-2,6-dimethylpyridin-3-yl)acetic Acid] | > 7.00 |  |
| Cc1cccc(F)c1CN1CCc2cc(-c3c(C)nc(C)c([C@H](OC(C)(C)C)C(=O)O)c3-c3cc(F)c4c(c3C)CCCO4)ccc2C1 [Example 39, (2S)-2-(tert-Butoxy)-2-(4-(8-fluoro-5-methylchroman-6-yl)-5-(2-(2-fluoro-6-methylbenzyl)-1,2,3,4-tetrahydroisoquinolin-6-yl)-2,6-dimethylpyridin-3-yl)acetic Acid] | > 7.00 | 0.024 |
| Cc1ccccc1CN1CCc2cc(-c3c(C)nc(C)c([C@H](OC(C)(C)C)C(=O)O)c3-c3cc(F)c4c(c3C)CCCO4)ccc2C1 [Example 40, (2S)-2-(tert-Butoxy)-2-(4-(8-fluoro-5-methylchroman-6-yl)-2,6-dimethyl-5-(2-(2-methylbenzyl)-1,2,3,4-tetrahydroisoquinolin-6-yl)pyridin-3-yl)acetic Acid] | > 7.00 |  |
| Cc1ccc(-c2c(-c3ccc4c(c3)CCN(Cc3c(C)cccc3F)C4)c(C)nc(C)c2[C@H](OC(C)(C)C)C(=O)O)cc1 [Example 41, (S)-2-(tert-Butoxy)-2-(5-(2-(2-fluoro-6-methylbenzyl)-1,2,3,4-tetrahydroisoquinolin-6-yl)-2,6-dimethyl-4-(p-tolyl)pyridin-3-yl)acetic Acid] | > 7.00 |  |
| Cc1ccc(-c2c(-c3ccc4c(c3)CCN(Cc3ccccc3F)C4)c(C)nc(C)c2[C@H](OC(C)(C)C)C(=O)O)cc1 [Example 42, (S)-2-(tert-Butoxy)-2-(5-(2-(2-fluorobenzyl)-1,2,3,4-tetrahydroisoquinolin-6-yl)-2,6-dimethyl-4-(p-tolyl)pyridin-3-yl)acetic Acid] | > 7.00 |  |
| Cc1nc(C)c([C@H](OC(C)(C)C)C(=O)O)c(-c2ccc3c4c(ccnc24)CCO3)c1-c1ccc(OCCc2ccc(F)cc2)cc1 [Example 43, (2S)-2-(tert-Butoxy)-2-(4-(2,3-dihydropyrano[4,3,2-de]quinolin-7-yl)-5-(4-(4-fluorophenethoxy)phenyl)-2,6-dimethylpyridin-3-yl)acetic Acid] | 6.00 to 7.00 |  |
| Cc1nc(C)c([C@H](OC(C)(C)C)C(=O)O)c(-c2ccc3c(c2)CCCO3)c1-c1ccc(OCCc2ccc(F)cc2F)cc1 [Example 44, (S)-2-(tert-Butoxy)-2-(4-(chroman-6-yl)-5-(4-(2,4-difluorophenethoxy)phenyl)-2,6-dimethylpyridin-3-yl)acetic Acid] | > 7.00 |  |
| Cc1nc(C)c([C@H](OC(C)(C)C)C(=O)O)c(-c2ccc3c(c2)CCCO3)c1-c1ccc(OCCc2ccccc2F)cc1 [Example 45, (S)-2-(tert-Butoxy)-2-(4-(chroman-6-yl)-5-(4-(2-fluorophenethoxy)phenyl)-2,6-dimethylpyridin-3-yl)acetic Acid] | > 7.00 |  |
| Cc1nc(C)c([C@H](OC(C)(C)C)C(=O)O)c(C2=CCC(C)(C)CC2)c1-c1ccc(OCCc2ccc(F)cc2)cc1 [Example 46, (S)-2-(tert-Butoxy)-2-(4-(4,4-dimethylcyclohex-1-en-1-yl)-5-(4-(4-fluorophenethoxy)phenyl)-2,6-dimethylpyridin-3-yl)acetic Acid] | > 7.00 | 0.061 |
